Data as given in patent US20240360137A1 (Novartis AG, priority 2023, published 2024).

How the values were obtained:
Assay in all cases: CDKi biochemical assay (TR-FRET, phosphorylation of S780 on RB1 peptide)
[1] = molecular target: CDK2/CyclinE1 (Homo sapiens, UniProt P24941); details: CDK2/CyclinE1 100 pM, 1 mM ATP, 60 min at 25° C.
In short: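 CDK2/CyclinE1 (Avi-tag, 100 pM; CDK2 E. coli-expressed) phosphorylated His-MBP-RB1[773-924] (200 nM) at S780 with 1 mM ATP in HEPES pH 7.5/MgCl2/DTT, 60 min at 25° C. After EDTA quench, TR-FRET detection ran 3 h (Eu anti-p-RB S780, SA-APC). Apparent IC50 came from percent activity versus log concentration.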

[2] = molecular target: CDK6/cyclinD3 (Homo sapiens, UniProt Q00534); details: CDK6/cyclinD3 10 pM, 1 mM ATP, 60 min at 25° C.
In short: (§1)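 Avi-tagged, biotinylated CDK4/cyclinD1 (20 pM) or CDK6/cyclinD3 (10 pM) phosphorylates 200 nM His-MBP-RB1[773-924] at S780 with 1 mM ATP in HEPES pH 7.5/MgCl2, 60 min, 25° C. After EDTA quench, Eu anti-pRB(S780)/SA-APC TR-FRET is read after 3 h. Apparent IC50 comes from % activity versus log concentration.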

[3] = molecular target: CDK4/cyclinD1 (Homo sapiens, UniProt P11802); details: CDK4/cyclinD1 20 pM, 1 mM ATP, 60 min at 25° C.
In short: as §1

[4] = molecular target: CDK1/CyclinB1 (Homo sapiens, UniProt P06493); details: CDK1/CyclinB1 10 pM, 1 mM ATP, 60 min at 25° C.
In short: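 CDK1/CyclinB1 (10 pM, Avi-tagged, insect-cell expressed) phosphorylated S780 of His-MBP-RB1[773-924] (200 nM) with 1 mM ATP in HEPES pH 7.5, 10 mM MgCl2, 1 mM DTT, 60 min at 25 °C. After EDTA quench, TR-FRET detection (Eu anti-pRB S780, SA-APC) for 3 h; apparent IC50 from percent activity versus log concentration.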

| SMILES | IC50 [1] | IC50 [2] | IC50 [3] | IC50 [4] |
| --- | --- | --- | --- | --- |
| O=C1N([C@@H]2CCC[C@@H](O)C2)c2nc(Nc3c[nH]nc3O[C@@H]3COC[C@H]3F)ncc2C12CC2 [Example 24, 2′-((3-(((3R,4R)-4-fluorotetrahydrofuran-3-yl)oxy)-1H-pyrazol-4-yl)amino)-7′-((1R,3R)-3-hydroxycyclohexyl)spiro[cyclopropane-1,5′-pyrrolo[2,3-d]pyrimidin]-6′(7′H)-one] | 12 nM | ≥ 10000 nM | 3910 nM | 2020 nM |
| O=C1N([C@@H]2CCC[C@@H](O)C2)c2nc(Nc3c[nH]nc3C3CCOC3)ncc2C12CC2 (stereo partly drawn) [Example 8, 7′-((1R,3R)-3-hydroxycyclohexyl)-2′-((3-(tetrahydrofuran-3-yl)-1H-pyrazol-4-yl)amino)spiro[cyclopropane-1,5′-pyrrolo[2,3-d]pyrimidin]-6′(7′H)-one] | 234 nM | ≥ 10000 nM | ≥ 10000 nM | ≥ 10000 nM |
| O=C1N([C@@H]2CCC[C@@H](O)C2)c2nc(Nc3c[nH]nc3OCC3(F)CC3)ncc2C12CC2 [Example 45, 2′-((3-((1-fluorocyclopropyl)methoxy)-1H-pyrazol-4-yl)amino)-7′-((1R,3R)-3-hydroxycyclohexyl)spiro[cyclopropane-1,5′-pyrrolo[2,3-d]pyrimidin]-6′(7′H)-one] | 11 nM | 3500 nM | 1230 nM | 770 nM |
| O=C1N([C@@H]2CCC[C@@H](O)C2)c2nc(Nc3c[nH]nc3C(F)F)ncc2C12CC2 [Example 3, 2′-((3-(difluoromethyl)-1H-pyrazol-4-yl)amino)-7′-((1R,3R)-3-hydroxycyclohexyl)spiro[cyclopropane-1,5′-pyrrolo[2,3-d]pyrimidin]-6′(7′H)-one] | 7 nM | 3760 nM | 2740 nM | 820 nM |
| O=C1N([C@@H]2CCC[C@@H](O)C2)c2nc(Nc3c[nH]nc3OC3(CF)CC3)ncc2C12CC2 [Example 85, 2′-((3-(1-(fluoromethyl)cyclopropoxy)-1H-pyrazol-4-yl)amino)-7′-((1R,3R)-3-hydroxycyclohexyl)spiro[cyclopropane-1,5′-pyrrolo[2,3-d]pyrimidin]-6′(7′H)-one] | 27 nM | ≥ 10000 nM | 4400 nM | 1710 nM |
| COCCOc1n[nH]cc1Nc1ncc2c(n1)N([C@@H]1CCC[C@@H](O)C1)C(=O)C21CC1 [Example 22, 7′-((1R,3R)-3-hydroxycyclohexyl)-2′-((3-(2-methoxyethoxy)-1H-pyrazol-4-yl)amino)spiro[cyclopropane-1,5′-pyrrolo[2,3-d]pyrimidin]-6′(7′H)-one] | 34 nM | 8120 nM | 5260 nM | 2960 nM |
| O=C1N([C@@H]2CCC[C@@H](O)C2)c2nc(Nc3c[nH]nc3O[C@H]3CCOC3)ncc2C12CC2 [Example 78, 7′-((1R,3R)-3-hydroxycyclohexyl)-2′-((3-(((S)-tetrahydrofuran-3-yl)oxy)-1H-pyrazol-4-yl)amino)spiro[cyclopropane-1,5′-pyrrolo[2,3-d]pyrimidin]-6′(7′H)-one] | 17 nM | 3540 nM | 2600 nM | 2540 nM |
| O=C1N([C@@H]2CCC[C@@H](O)C2)c2nc(Nc3c[nH]nc3OC[C@@H]3CCOC3)ncc2C12CC2 [Example 71, 7′-((1R,3R)-3-hydroxycyclohexyl)-2′-((3-(((R)-tetrahydrofuran-3-yl)methoxy)-1H-pyrazol-4-yl)amino)spiro[cyclopropane-1,5′-pyrrolo[2,3-d]pyrimidin]-6′(7′H)-one] | 44 nM | ≥ 10000 nM | ≥ 10000 nM | 7590 nM |
| N#CC1(COc2n[nH]cc2Nc2ncc3c(n2)N([C@@H]2CCC[C@@H](O)C2)C(=O)C32CC2)CC1 [Example 67, 1-(((4-((7′-((1R,3R)-3-hydroxycyclohexyl)-6′-oxo-6′,7′-dihydrospiro[cyclopropane-1,5′-pyrrolo[2,3-d]pyrimidin]-2′-yl)amino)-1H-pyrazol-3-yl)oxy)methyl)cyclopropane-1-carbonitrile] | 23 nM | ≥ 10000 nM | 6910 nM | 4130 nM |
| O=C1N([C@@H]2CCC[C@@H](O)C2)c2nc(Nc3c[nH]nc3C3CC3)ncc2C12CC2 [Example 14, 2′-((3-cyclopropyl-1H-pyrazol-4-yl)amino)-7′-((1R,3R)-3-hydroxycyclohexyl)spiro[cyclopropane-1,5′-pyrrolo[2,3-d]pyrimidin]-6′(7′H)-one] | 30 nM | ≥ 10000 nM | ≥ 10000 nM | 1550 nM |
| O=C1N([C@@H]2CCC[C@@H](O)C2)c2nc(Nc3c[nH]nc3-c3ccccn3)ncc2C12CC2 [Example 60, 7′-((1R,3R)-3-hydroxycyclohexyl)-2′-((3-(pyridin-2-yl)-1H-pyrazol-4-yl)amino)spiro[cyclopropane-1,5′-pyrrolo[2,3-d]pyrimidin]-6′(7′H)-one] | 162 nM | ≥ 10000 nM | ≥ 10000 nM | ≥ 10000 nM |
| [2H]C([2H])([2H])Oc1n[nH]cc1Nc1ncc2c(n1)N([C@@H]1CCC[C@@H](O)C1)C(=O)C21CC1 [Example 49, 7′-((1R,3R)-3-hydroxycyclohexyl)-2′-((3-(methoxy-d3)-1H-pyrazol-4-yl)amino)spiro[cyclopropane-1,5′-pyrrolo[2,3-d]pyrimidin]-6′(7′H)-one] | 15 nM | ≥ 10000 nM | 9770 nM | 2640 nM |
| O=C1N([C@@H]2CCC[C@@H](O)C2)c2nc(Nc3c[nH]nc3OCCF)ncc2C12CC2 [Example 39, 2′-((3-(2-fluoroethoxy)-1H-pyrazol-4-yl)amino)-7′-((1R,3R)-3-hydroxycyclohexyl)spiro[cyclopropane-1,5′-pyrrolo[2,3-d]pyrimidin]-6′(7′H)-one] | 7 nM | 2950 nM | 1430 nM | 1200 nM |
| O=C1N([C@@H]2CCC[C@@H](O)C2)c2nc(Nc3c[nH]nc3[C@@H]3CC3(F)F)ncc2C12CC2 [Example 33, 2′-((3-((S)-2,2-difluorocyclopropyl)-1H-pyrazol-4-yl)amino)-7′-((1R,3R)-3-hydroxycyclohexyl)spiro[cyclopropane-1,5′-pyrrolo[2,3-d]pyrimidin]-6′(7′H)-one] | 49 nM | ≥ 10000 nM | ≥ 10000 nM | 3760 nM |
| COC(=O)c1n[nH]cc1Nc1ncc2c(n1)N([C@@H]1CCC[C@@H](O)C1)C(=O)C21CC1 [Example 4, methyl 4-((7′-((1R,3R)-3-hydroxycyclohexyl)-6′-oxo-6′,7′-dihydrospiro[cyclopropane-1,5′-pyrrolo[2,3-d]pyrimidin]-2′-yl)amino)-1H-pyrazole-3-carboxylate] | 96 nM | ≥ 10000 nM | ≥ 10000 nM | ≥ 10000 nM |
| N#Cc1n[nH]cc1Nc1ncc2c(n1)N([C@@H]1CCC[C@@H](O)C1)C(=O)C21CC1 [Example 20, 4-((7′-((1R,3R)-3-hydroxycyclohexyl)-6′-oxo-6′,7′-dihydrospiro[cyclopropane-1,5′-pyrrolo[2,3-d]pyrimidin]-2′-yl)amino)-1H-pyrazole-3-carbonitrile] | 8 nM | 2660 nM | 2160 nM | 660 nM |
